In patent US9346809B2 (LEO PHARMA A/S, priority 2009, dated 2016) one finds EC50 data, which are given here for 19 molecules.

Common to all, as to assay type: biochemical
The target in assay [1] is T1, JAK3 (catalytic domain, His-tag) (Homo sapiens, UniProt P52333).
T1 construct: All four purified enzymes contain only the catalytic domain; His (N); purchased Carna Biosciences, Inc; host or cells: baculovirus expression system
The assay is described as follows: JAK kinase assay (HTRF, phosphorylation of TK substrate-biotin), JAK3. Conditions: ATP at Km (2 μM). Summed up:
(§1)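 Baculovirus-expressed catalytic domains phosphorylated 1 μM TK substrate-biotin in 50 mM Hepes pH 7.0 with ATP at Km (JAK1 7 μM, JAK2 4 μM, JAK3 2 μM, TYK2 13 μM) for 20-30 min at RT. EDTA/KF stop, streptavidin-XL665 plus cryptate antibody overnight; HTRF signal gave EC50.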
On the technique in general: TR-FRET usually uses a lanthanide donor and a delayed reading to cut background.

The target in assay [2] is T2, JAK2 (catalytic domain, His-tag) (Homo sapiens, UniProt O60674).
T2 construct: All four purified enzymes contain only the catalytic domain; His (N); purchased Carna Biosciences, Inc; host or cells: baculovirus expression system
T2 sequence (O60674 849-1124 limits assumed): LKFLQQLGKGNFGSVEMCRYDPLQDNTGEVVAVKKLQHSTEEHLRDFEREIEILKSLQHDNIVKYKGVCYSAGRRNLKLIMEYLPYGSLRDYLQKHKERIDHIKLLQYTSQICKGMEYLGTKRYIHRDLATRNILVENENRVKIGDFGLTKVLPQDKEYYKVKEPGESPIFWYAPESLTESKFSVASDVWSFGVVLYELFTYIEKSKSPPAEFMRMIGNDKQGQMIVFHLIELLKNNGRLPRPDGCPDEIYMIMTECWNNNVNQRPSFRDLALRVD
The assay is described as follows: JAK kinase assay (HTRF, phosphorylation of TK substrate-biotin), JAK2. Conditions: ATP at Km (4 μM). Summed up:
as §1

Assay [3] has as its target T3, JAK1 (aa 850-1154, catalytic domain, GST-tag) (Homo sapiens, UniProt P23458).
T3 construct: JAK1 (aa 850-1154) and TYK2 (aa 871-1187) are expressed with an N-terminally fused GST-tag; GST (N); purchased Carna Biosciences, Inc; host or cells: baculovirus expression system
The assay is described as follows: JAK kinase assay (HTRF, phosphorylation of TK substrate-biotin), JAK1. Conditions: ATP at Km (7 μM). Summed up:
as §1

For assay [4], the target named is T4, TYK2 (aa 871-1187, catalytic domain, GST-tag) (Homo sapiens, UniProt P29597).
T4 construct: JAK1 (aa 850-1154) and TYK2 (aa 871-1187) are expressed with an N-terminally fused GST-tag; GST (N); purchased Carna Biosciences, Inc; host or cells: baculovirus expression system
T4 sequence (P29597 871-1187): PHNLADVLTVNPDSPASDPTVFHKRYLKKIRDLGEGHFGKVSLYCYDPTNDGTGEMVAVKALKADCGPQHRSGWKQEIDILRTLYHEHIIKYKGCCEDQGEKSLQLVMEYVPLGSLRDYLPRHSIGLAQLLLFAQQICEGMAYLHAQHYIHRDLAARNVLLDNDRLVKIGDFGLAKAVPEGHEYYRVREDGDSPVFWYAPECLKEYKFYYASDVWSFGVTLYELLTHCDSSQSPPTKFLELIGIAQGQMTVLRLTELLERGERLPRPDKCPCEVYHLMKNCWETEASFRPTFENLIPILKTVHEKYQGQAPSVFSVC
The assay is described as follows: JAK kinase assay (HTRF, phosphorylation of TK substrate-biotin), TYK2. Conditions: ATP at Km (13 μM). Put shortly: as §1

[5] abbreviates: read-out: JAK3 kinase inhibitory activity (EC50 indicator).
Where [6] appears, read: read-out: JAK2 kinase inhibitory activity (EC50 indicator).
Setting [7] is: read-out: JAK1 kinase inhibitory activity (EC50 indicator).
[8] abbreviates: read-out: TYK2 kinase inhibitory activity (EC50 indicator).
[9] abbreviates: HTRF assay, read-out: JAK3 kinase inhibitory activity (EC50 indicator).
Where [10] appears, read: HTRF assay, read-out: JAK2 kinase inhibitory activity (EC50 indicator).
The mark [11] stands for this setting: HTRF assay, read-out: JAK1 kinase inhibitory activity (EC50 indicator).
[12] abbreviates: HTRF assay, read-out: TYK2 kinase inhibitory activity (EC50 indicator).
Setting [13] is: HTRF assay, read-out: JAK3 kinase inhibitory activity (EC50).
The mark [14] stands for this setting: HTRF assay, read-out: JAK2 kinase inhibitory activity (EC50).
Setting [15] is: HTRF assay, read-out: JAK1 kinase inhibitory activity (EC50).
[16] abbreviates: HTRF assay, read-out: TYK2 kinase inhibitory activity (EC50).

pEC50: −log10 of the molar value. Where two headings read alike, the source gives them in different places. Bounds are passed on as bounds.

T3 sequence (P23458 850-1154): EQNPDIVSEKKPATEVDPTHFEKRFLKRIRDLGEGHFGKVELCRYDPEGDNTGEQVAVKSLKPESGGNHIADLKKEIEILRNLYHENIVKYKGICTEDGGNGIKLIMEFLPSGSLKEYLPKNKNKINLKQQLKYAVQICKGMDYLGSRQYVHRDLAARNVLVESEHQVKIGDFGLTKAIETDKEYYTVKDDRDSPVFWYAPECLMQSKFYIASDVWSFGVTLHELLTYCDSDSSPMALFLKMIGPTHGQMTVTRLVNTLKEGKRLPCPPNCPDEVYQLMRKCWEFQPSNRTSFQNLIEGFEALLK
T1 sequence (P52333 822-1111 limits assumed): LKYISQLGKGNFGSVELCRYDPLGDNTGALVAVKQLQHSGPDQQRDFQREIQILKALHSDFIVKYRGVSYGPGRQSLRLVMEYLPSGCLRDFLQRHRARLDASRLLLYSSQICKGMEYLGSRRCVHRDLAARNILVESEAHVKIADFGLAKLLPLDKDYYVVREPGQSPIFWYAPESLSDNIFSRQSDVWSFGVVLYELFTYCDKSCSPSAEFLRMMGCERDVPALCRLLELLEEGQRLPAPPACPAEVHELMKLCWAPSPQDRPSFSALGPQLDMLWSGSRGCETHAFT

Usually pEC50 stands for the negative decadic logarithm of the EC50, by convention in mol/L. Turning to `O=C(c1cccnc1)N1[C@@H]2CC[C@H]1CN(c1ncnc3[nH]ccc13)C2` [Example 57, Pyridin-3-yl-[3-(7H-pyrrolo[2,3-d]pyrimidin-4-yl)-3,8-diazabicyclo[3.2.1]oct-8-yl]methanone], the pEC50 in assay [1] (setting [5]) is under 6.30; in assay [2] (setting [6]) it was 6.30 to 7.00; in assay [3] (setting [7]), 6.30 to 7.00; in assay [4] (setting [8]), under 6.30.

`O=C(c1cc2ccccc2[nH]1)N1[C@@H]2CC[C@H]1CN(c1ncnc3[nH]ccc13)C2` [Example 348, (1H-Indol-2-yl)-[3-(7H-pyrrolo[2,3-d]pyrimidin-4-yl)-3,8-diaza-bicyclo[3.2.1]oct-8-yl]-methanone]: the negative-log EC50 (pEC50) in assay [1] (setting [9]) is over 7.00; in assay [2] (setting [10]), over 7.00; in assay [3] (setting [11]), over 7.00; in assay [4] (setting [12]) it was under 6.30.

Turning to `Cn1c(C(=O)N2C3CCC2CN(c2ncnc4[nH]ccc24)C3)ccc1S(N)(=O)=O` [Example 141, 1-Methyl-5-[3-(7H-pyrrolo[2,3-d]pyrimidin-4-yl)-3,8-diaza-bicyclo[3.2.1]octane-8-carbonyl]-1H-pyrrole-2-sulfonic acid amide], the pEC50 in assay [1] (setting [5]) is over 7.00; in assay [2] (setting [6]) it was over 7.00; in assay [3] (setting [7]) it was over 7.00; in assay [4] (setting [8]), under 6.30.

`N#Cc1cccc(CC(=O)N2[C@@H]3CC[C@@H]2CN(c2ncnc4[nH]ccc24)C3)c1` [Example 179, 3-{2-Oxo-2-[3-(7H-pyrrolo[2,3-d]pyrimidin-4-yl)-3,8-diaza-bicyclo[3.2.1]oct-8-yl]-ethyl}-benzonitrile]: the pEC50 is under 6.30 in assay [1] (setting [5]), 6.30 to 7.00 in assay [2] (setting [6]), 6.30 to 7.00 in assay [3] (setting [7]) and under 6.30 in assay [4] (setting [8]).

For `O=C([C@@H]1CCCc2ccccc21)N1C2CCC1CN(c1ncnc3[nH]ccc13)C2` [Example 137, [3-(7H-Pyrrolo[2,3-d]pyrimidin-4-yl)-3,8-diaza-bicyclo[3.2.1]oct-8-yl]-(1,2,3,4-tetrahydro-naphthalen-1-yl)-methanone], the pEC50 is under 6.30 in assay [1] (setting [5]), 6.30 to 7.00 in assay [2] (setting [6]), under 6.30 in assay [3] (setting [7]) and under 6.30 in assay [4] (setting [8]).

In the case of `O=C(c1cccc(OC(F)(F)F)c1)N1CCN(c2ncnc3[nH]ccc23)CC12CC2` [Example 160, [7-(7H-Pyrrolo[2,3-d]pyrimidin-4-yl)-4,7-diaza-spiro[2.5]oct-4-yl]-(3-trifluoromethoxy-phenyl)-methanone], the pEC50 in assay [1] (setting [5]) is 6.30 to 7.00; in assay [2] (setting [6]), over 7.00; in assay [3] (setting [7]), over 7.00; in assay [4] (setting [8]), 6.30 to 7.00.

For `CC(=O)OCC(=O)Nc1nc(N2CCN(C(=O)Cc3ccc(C#N)cc3)C3(CC3)C2)c2cc[nH]c2n1` [Example 100, Acetic acid (4-{4-[2-(4-cyano-phenyl)-acetyl]-4,7-diaza-spiro[2.5]oct-7-yl}-7H-pyrrolo[2,3-d]pyrimidin-2-ylcarbamoyl)-methyl ester], the pEC50 was over 7.00 in assay [1] (setting [5]), over 7.00 in assay [2] (setting [6]), over 7.00 in assay [3] (setting [7]) and 6.30 to 7.00 in assay [4] (setting [8]).

As for `CC1CN(C(=O)C2(C#N)CC2)C2(CC2)CN1c1ncnc2[nH]ccc12` (stereo not shown) [Example 149, 1-[6-Methyl-7-(7H-pyrrolo[2,3-d]pyrimidin-4-yl)-4,7-diaza-spiro[2.5]octane-4-carbonyl]-cyclopropanecarbonitrile], the pEC50 in assay [1] (setting [5]) was 6.30 to 7.00; in assay [2] (setting [6]), over 7.00; in assay [3] (setting [7]), over 7.00; in assay [4] (setting [8]), 6.30 to 7.00.

On to `COc1cccc(C(=O)N2CCN(c3ncnc4[nH]ccc34)CC23CC3)c1OC` [Example 212, (2,3-Dimethoxy-phenyl)-[7-(7H-pyrrolo[2,3-d]pyrimidin-4-yl)-4,7-diaza-spiro[2.5]oct-4-yl]-methanone], for which the negative logarithm of the EC50 (pEC50) in assay [1] (setting [9]) is under 6.30; in assay [2] (setting [10]), over 7.00; in assay [3] (setting [11]), 6.30 to 7.00; in assay [4] (setting [12]) it was under 6.30.

Regarding `Cc1c[nH]c2ncnc(N3CCN(C(=O)c4cccc(C#N)c4)C4(CC4)C3)c12` [Example 119, 3-[7-(5-Methyl-7H-pyrrolo[2,3-d]pyrimidin-4-yl)-4,7-diaza-spiro[2.5]octane-4-carbonyl]-benzonitrile], the pEC50 in assay [1] (setting [5]), in assay [2] (setting [6]), in assay [3] (setting [7]) and in assay [4] (setting [8]) was under 6.30 each time.

`O=C(COc1ccccc1)N1CCN(c2ncnc3[nH]ccc23)CC12CC2` [Example 442, 2-Phenoxy-1-[7-(7H-pyrrolo[2,3-d]pyrimidin-4-yl)-4,7-diaza-spiro[2.5]oct-4-yl]-ethanone]: the pEC50 in assay [1] (setting [13]) is over 7.00; in assay [2] (setting [14]), over 7.00; in assay [3] (setting [15]) it was over 7.00; in assay [4] (setting [16]), 6.30 to 7.00.

For the molecule `NS(=O)(=O)c1cccc(CC(=O)N2CCN(c3ncnc4[nH]ccc34)CC23CC3)c1` [Example 398, 3-{2-Oxo-2-[7-(7H-pyrrolo[2,3-d]pyrimidin-4-yl)-4,7-diaza-spiro[2.5]oct-4-yl]-ethyl}-benzenesulfonamide], the pEC50 was over 7.00 in assay [1] (setting [9]), over 7.00 in assay [2] (setting [10]), over 7.00 in assay [3] (setting [11]) and under 6.30 in assay [4] (setting [12]).

In the case of `Cc1c[nH]c2ncnc(N3CCN(C(=O)CCC#N)C4(CC4)C3)c12` [Example 335, 4-[7-(5-Methyl-7H-pyrrolo[2,3-d]pyrimidin-4-yl)-4,7-diaza-spiro[2.5]oct-4-yl]-4-oxo-butyronitrile], the pEC50 in assay [1] (setting [9]), in assay [2] (setting [10]), in assay [3] (setting [11]) and in assay [4] (setting [12]) was under 6.30 in each case.

In the case of `COCCS(=O)(=O)c1ccc(C(=O)N2CCN(c3ncnc4[nH]ccc34)CC23CC3)cc1` [Example 433, [4-(2-Methoxy-ethanesulfonyl)-phenyl]-[7-(7H-pyrrolo[2,3-d]pyrimidin-4-yl)-4,7-diaza-spiro[2.5]oct-4-yl]-methanone], the pEC50 in assay [1] (setting [9]) was 6.30 to 7.00; in assay [2] (setting [10]), over 7.00; in assay [3] (setting [11]), over 7.00; in assay [4] (setting [12]) it was 6.30 to 7.00.

In the case of `S=C(COc1ccccc1)N1CCN(c2ncnc3[nH]ccc23)CC12CC2` [Example 448, 2-Phenoxy-1-[7-(7H-pyrrolo[2,3-d]pyrimidin-4-yl)-4,7-diaza-spiro[2.5]oct-4-yl]-ethanethione], the pEC50 in assay [1] (setting [13]) is over 7.00; in assay [2] (setting [14]) it was over 7.00; in assay [3] (setting [15]), over 7.00; in assay [4] (setting [16]), 6.30 to 7.00.

As for `COC(=O)c1cc2c(N3CCN(C(=O)CCCC#N)C4(CC4)C3)ncnc2[nH]1` [Example 339, 4-[4-(4-Cyano-butyryl)-4,7-diaza-spiro[2.5]oct-7-yl]-7H-pyrrolo[2,3-d]pyrimidine-6-carboxylic acid methyl ester], the pEC50 in assay [1] (setting [9]), in assay [2] (setting [10]), in assay [3] (setting [11]) and in assay [4] (setting [12]) was under 6.30 each time.

In the case of `CCCS(=O)(=O)Nc1ccc(C(=O)N2CCN(c3ncnc4[nH]ccc34)CC23CC3)cc1` [Example 431, Propane-1-sulfonic acid {4-[7-(7H-pyrrolo[2,3-d]pyrimidin-4-yl)-4,7-diaza-spiro[2.5]octane-4-carbonyl]-phenyl}-amide], the pEC50 is 6.30 to 7.00 in assay [1] (setting [9]), over 7.00 in assay [2] (setting [10]), over 7.00 in assay [3] (setting [11]) and 6.30 to 7.00 in assay [4] (setting [12]).

For the molecule `CS(=O)(=O)c1ccc(C(=O)N2CCN(c3ncnc4[nH]ccc34)CC23CC3)c(F)c1` [Example 183, (2-Fluoro-4-methanesulfonyl-phenyl)-[7-(7H-pyrrolo[2,3-d]pyrimidin-4-yl)-4,7-diaza-spiro[2.5]oct-4-yl]-methanone], the pEC50 in assay [1] (setting [5]), in assay [2] (setting [6]), in assay [3] (setting [7]) and in assay [4] (setting [8]) was over 7.00 throughout.

Take `NS(=O)(=O)c1ccc(/C=C/C(=O)N2CCN(c3ncnc4[nH]ccc34)CC23CC3)cc1` [Example 197, 4-{3-Oxo-3-[7-(7H-pyrrolo[2,3-d]pyrimidin-4-yl)-4,7-diaza-spiro[2.5]oct-4-0]-propenyl}-benzenesulfonamide]: the pEC50 in assay [1] (setting [5]), in assay [2] (setting [6]), in assay [3] (setting [7]) and in assay [4] (setting [8]) was over 7.00 throughout.
